The values below come from patent publication US9340590B2 (priority 2011, dated 2016).

SMILES strings stand for the structures. Read-outs that look alike come from different tables or passages of the source. Positions of bridges follow the written chain, without caps; N, C: chain ends. Residues, ends and D or L forms follow the SMILES beside them.

What all share (assay): cell-based
The target of assay [1] is T1, hNav1.7 (Homo sapiens, UniProt Q15858).
The target of the next assay is hNav1.5 (Homo sapiens, UniProt Q14524). Conditions: IonWorks Quattro, read-out: IWQ Use Nav1.5. Background: In patch-clamp work, channel activity is measured electrically.
In assay [2] the target is T1, hNav1.7. The format is cell-based. The conditions noted are these: IonWorks Quattro, read-out: IWQ Use Nav1.7.
A further assay concerns the target hNav1.3 (Homo sapiens, UniProt Q9NY46). Conditions: IonWorks Quattro, read-out: IWQ Use Nav1.3.
[3] abbreviates: clamped to −110 mV, depolarized to −10 mV, 5 min after compound, n=2.

Chain of hNav1.5 (Q14524 whole entry, looked up): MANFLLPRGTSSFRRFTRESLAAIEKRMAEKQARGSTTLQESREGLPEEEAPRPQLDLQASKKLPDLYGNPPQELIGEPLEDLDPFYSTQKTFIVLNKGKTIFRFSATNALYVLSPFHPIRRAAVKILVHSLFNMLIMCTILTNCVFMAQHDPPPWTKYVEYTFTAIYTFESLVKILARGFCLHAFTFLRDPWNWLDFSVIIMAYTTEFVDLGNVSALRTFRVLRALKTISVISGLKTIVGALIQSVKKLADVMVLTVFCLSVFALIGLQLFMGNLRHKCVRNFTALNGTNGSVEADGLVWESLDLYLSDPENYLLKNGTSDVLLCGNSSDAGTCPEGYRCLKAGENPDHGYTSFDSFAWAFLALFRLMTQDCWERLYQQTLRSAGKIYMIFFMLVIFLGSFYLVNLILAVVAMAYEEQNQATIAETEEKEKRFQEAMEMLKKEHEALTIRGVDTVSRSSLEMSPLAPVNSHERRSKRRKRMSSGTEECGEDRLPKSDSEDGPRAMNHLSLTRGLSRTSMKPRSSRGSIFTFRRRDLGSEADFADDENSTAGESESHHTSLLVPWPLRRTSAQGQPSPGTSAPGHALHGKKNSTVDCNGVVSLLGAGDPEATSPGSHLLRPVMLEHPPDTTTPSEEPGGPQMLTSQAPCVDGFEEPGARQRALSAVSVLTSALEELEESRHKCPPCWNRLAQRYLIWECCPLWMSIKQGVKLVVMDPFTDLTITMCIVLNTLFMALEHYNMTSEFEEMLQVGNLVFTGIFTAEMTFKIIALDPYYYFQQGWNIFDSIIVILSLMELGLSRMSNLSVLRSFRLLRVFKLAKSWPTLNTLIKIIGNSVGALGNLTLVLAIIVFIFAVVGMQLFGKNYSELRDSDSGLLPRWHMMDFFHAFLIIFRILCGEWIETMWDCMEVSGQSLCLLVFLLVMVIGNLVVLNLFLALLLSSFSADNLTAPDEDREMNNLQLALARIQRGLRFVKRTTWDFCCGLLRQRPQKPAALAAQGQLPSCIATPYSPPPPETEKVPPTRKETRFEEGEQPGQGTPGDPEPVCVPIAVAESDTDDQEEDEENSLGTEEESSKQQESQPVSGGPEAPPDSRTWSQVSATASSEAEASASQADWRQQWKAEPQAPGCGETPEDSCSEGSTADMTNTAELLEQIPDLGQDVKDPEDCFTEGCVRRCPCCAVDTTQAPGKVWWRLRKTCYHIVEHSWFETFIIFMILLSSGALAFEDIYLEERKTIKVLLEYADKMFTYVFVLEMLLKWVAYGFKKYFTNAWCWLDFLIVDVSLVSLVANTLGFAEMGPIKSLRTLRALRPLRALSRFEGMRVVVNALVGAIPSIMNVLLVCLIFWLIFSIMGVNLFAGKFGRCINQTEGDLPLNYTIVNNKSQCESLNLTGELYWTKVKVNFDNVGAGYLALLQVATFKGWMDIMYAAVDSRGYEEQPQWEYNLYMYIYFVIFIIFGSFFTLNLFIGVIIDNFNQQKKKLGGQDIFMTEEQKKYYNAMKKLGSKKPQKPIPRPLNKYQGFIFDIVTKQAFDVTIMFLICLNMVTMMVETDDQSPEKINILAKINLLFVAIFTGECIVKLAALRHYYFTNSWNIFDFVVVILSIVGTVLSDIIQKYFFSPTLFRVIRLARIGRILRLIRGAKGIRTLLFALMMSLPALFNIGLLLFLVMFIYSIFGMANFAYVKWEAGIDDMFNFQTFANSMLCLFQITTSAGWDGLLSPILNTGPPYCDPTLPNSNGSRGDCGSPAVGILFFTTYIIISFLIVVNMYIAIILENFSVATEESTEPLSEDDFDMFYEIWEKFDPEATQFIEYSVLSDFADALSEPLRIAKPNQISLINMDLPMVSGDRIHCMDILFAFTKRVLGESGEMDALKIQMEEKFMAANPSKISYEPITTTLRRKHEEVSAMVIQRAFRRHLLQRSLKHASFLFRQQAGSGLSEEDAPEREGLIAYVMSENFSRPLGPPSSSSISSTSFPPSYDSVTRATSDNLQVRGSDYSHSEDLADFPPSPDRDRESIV
Chain of hNav1.3 (Q9NY46 whole entry, looked up): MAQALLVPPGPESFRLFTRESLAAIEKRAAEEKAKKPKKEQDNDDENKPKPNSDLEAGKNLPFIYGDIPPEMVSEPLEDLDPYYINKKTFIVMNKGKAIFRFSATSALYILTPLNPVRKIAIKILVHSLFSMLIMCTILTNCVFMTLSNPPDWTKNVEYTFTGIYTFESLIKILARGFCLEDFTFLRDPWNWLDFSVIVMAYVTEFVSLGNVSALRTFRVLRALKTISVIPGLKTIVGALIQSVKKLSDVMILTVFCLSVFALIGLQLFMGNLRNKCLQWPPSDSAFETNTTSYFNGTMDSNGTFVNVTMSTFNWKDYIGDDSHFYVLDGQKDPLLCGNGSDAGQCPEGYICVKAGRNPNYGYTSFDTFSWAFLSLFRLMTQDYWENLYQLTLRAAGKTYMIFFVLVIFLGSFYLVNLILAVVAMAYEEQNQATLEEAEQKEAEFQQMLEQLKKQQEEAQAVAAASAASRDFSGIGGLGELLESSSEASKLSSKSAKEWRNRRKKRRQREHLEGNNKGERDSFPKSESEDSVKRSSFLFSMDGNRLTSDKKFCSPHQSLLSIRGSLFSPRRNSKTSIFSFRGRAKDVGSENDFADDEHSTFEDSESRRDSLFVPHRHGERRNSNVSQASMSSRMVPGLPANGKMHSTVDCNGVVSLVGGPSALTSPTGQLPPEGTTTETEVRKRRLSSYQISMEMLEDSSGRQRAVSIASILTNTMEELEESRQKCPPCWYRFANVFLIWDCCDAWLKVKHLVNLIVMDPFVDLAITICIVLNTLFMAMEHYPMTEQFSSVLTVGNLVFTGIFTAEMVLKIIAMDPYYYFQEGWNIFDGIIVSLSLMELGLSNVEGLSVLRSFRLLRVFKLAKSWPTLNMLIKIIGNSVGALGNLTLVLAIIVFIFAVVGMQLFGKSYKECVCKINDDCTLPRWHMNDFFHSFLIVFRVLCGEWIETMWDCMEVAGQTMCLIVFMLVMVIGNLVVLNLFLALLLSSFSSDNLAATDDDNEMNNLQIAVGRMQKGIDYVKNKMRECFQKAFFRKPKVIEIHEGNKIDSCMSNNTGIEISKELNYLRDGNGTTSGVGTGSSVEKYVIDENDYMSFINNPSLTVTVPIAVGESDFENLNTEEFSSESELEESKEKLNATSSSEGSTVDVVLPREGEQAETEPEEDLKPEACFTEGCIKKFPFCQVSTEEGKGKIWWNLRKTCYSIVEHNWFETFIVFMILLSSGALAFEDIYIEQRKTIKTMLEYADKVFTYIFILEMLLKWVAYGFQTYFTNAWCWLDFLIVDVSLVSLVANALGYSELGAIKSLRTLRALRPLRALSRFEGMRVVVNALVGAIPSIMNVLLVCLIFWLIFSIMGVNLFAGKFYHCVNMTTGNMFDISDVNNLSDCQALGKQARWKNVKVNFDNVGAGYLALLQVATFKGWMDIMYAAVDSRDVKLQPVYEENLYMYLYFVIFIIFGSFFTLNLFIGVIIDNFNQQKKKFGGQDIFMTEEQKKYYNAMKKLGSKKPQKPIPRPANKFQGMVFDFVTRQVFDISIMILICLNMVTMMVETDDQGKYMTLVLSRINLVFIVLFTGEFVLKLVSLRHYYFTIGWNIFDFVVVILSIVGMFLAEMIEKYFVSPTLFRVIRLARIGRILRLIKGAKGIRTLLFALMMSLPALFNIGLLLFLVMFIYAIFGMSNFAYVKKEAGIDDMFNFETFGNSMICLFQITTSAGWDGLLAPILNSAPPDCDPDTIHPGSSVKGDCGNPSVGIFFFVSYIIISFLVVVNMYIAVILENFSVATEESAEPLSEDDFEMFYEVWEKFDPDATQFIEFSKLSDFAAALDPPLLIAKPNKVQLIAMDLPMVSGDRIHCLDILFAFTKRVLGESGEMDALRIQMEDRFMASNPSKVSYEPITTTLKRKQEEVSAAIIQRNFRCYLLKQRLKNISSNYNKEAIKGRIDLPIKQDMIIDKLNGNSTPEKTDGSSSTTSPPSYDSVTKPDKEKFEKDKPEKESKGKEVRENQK

Turning to `CC[C@H](C)[C@@H]1NC(=O)[C@@H]2CSSC[C@@H]3NC(=O)[C@H](C(C)C)NC(=O)[C@H](CC(C)C)NC(=O)[C@H](CC(N)=O)NC(=O)[C@@H]4CCCN4C(=O)[C@H](CCCNC(=N)N)NC(=O)[C@H](CSSC[C@H](NC(=O)[C@@H](N)CC(=O)O)C(=O)N[C@@H](CC(C)C)C(=O)NCC(=O)N[C@@H](C)C(=O)N[C@@H](Cc4ccccc4)C(=O)N[C@@H](CCCNC(=N)N)C(=O)N[C@@H](CCCCN)C(=O)N2)NC(=O)[C@H](CSSC[C@@H](C(=O)N[C@@H](CCCCN)C(=O)N[C@@H](Cc2ccc(O)cc2)C(=O)N[C@H](C(=O)N[C@@H](Cc2ccccc2)C(N)=O)C(C)C)NC(=O)[C@H](Cc2c[nH]c4ccccc24)NC(=O)[C@H](CCCCN)NC(=O)[C@H](Cc2c[nH]cn2)NC(=O)[C@H](CC(C)C)NC(=O)[C@H](CCCNC(=N)N)NC(=O)[C@H](CO)NC3=O)NC(=O)[C@H](CCCCN)NC(=O)[C@H](CC(=O)O)NC(=O)[C@H](CC(N)=O)NC(=O)[C@H](CC(=O)O)NC(=O)[C@@H]2CCCN2C1=O` [[Ala5;Phe6;Leu26]GpTx-1(1-34)] (H-DCLGAFRKCIPDNDKCCRPNLVCSRLHKWCKYVF-NH2; disulfide 2-17, 9-23, 16-30), the IC50 on hNav1.7 [1] (read-out: Nav1.7 Use IC50) came to 4 nM.
On hNav1.7 [1] (Nav1.7 Use IC50), `CC[C@H](C)[C@@H]1NC(=O)[C@@H]2CSSC[C@@H]3NC(=O)[C@H](C(C)C)NC(=O)[C@H](CC(C)C)NC(=O)[C@H](CC(N)=O)NC(=O)[C@@H]4CCCN4C(=O)[C@H](CCCNC(=N)N)NC(=O)[C@H](CSSC[C@H](NC(=O)[C@@H](N)CC(=O)O)C(=O)N[C@@H](CC(C)C)C(=O)NCC(=O)N[C@@H](Cc4ccccc4)C(=O)N[C@@H](CCSC)C(=O)N[C@@H](CCCNC(=N)N)C(=O)N[C@@H](CCCCN)C(=O)N2)NC(=O)[C@H](CSSC[C@@H](C(=O)N[C@@H](CCCCN)C(=O)N[C@@H](Cc2ccc(O)cc2)C(=O)N[C@H](C(=O)N[C@@H](Cc2ccccc2)C(N)=O)C(C)C)NC(=O)[C@H](Cc2c[nH]c4ccccc24)NC(=O)[C@H](CCCCN)NC(=O)[C@H](Cc2cnc[nH]2)NC(=O)[C@H]([C@@H](C)O)NC(=O)[C@H](CCCNC(=N)N)NC(=O)[C@H](CO)NC3=O)NC(=O)[C@H](CCCCN)NC(=O)[C@H](CC(=O)O)NC(=O)[C@H](CC(N)=O)NC(=O)[C@H](CC(=O)O)NC(=O)[C@H](CCC(=O)O)NC1=O` [[Glu11]GpTx-1(1-34)] (H-DCLGFMRKCIEDNDKCCRPNLVCSRTHKWCKYVF-NH2; disulfide 2-17, 9-23, 16-30) gave an IC50 of 2 nM.
With `CC[C@H](C)[C@@H]1NC(=O)[C@@H]2CSSC[C@@H]3NC(=O)[C@H](C(C)C)NC(=O)[C@H](CC(C)C)NC(=O)[C@H](CC(N)=O)NC(=O)[C@@H]4CCCN4C(=O)[C@H](CCCNC(=N)N)NC(=O)[C@H](CSSC[C@H](NC(=O)[C@@H](N)CC(=O)O)C(=O)N[C@@H](CC(C)C)C(=O)NCC(=O)N[C@@H](Cc4ccccc4)C(=O)N[C@@H](CO)C(=O)N[C@@H](CCCNC(=N)N)C(=O)N[C@@H](CCCCN)C(=O)N2)NC(=O)[C@H](CSSC[C@@H](C(=O)N[C@@H](CCCCN)C(=O)N[C@@H](Cc2ccc(O)cc2)C(=O)N[C@H](C(=O)N[C@@H](Cc2ccccc2)C(N)=O)C(C)C)NC(=O)[C@H](Cc2c[nH]c4ccccc24)NC(=O)[C@H](CCCCN)NC(=O)[C@H](Cc2c[nH]cn2)NC(=O)[C@H]([C@@H](C)O)NC(=O)[C@H](CCCNC(=N)N)NC(=O)[C@H](CO)NC3=O)NC(=O)[C@H](CCCCN)NC(=O)[C@H](CC(=O)O)NC(=O)[C@H](CC(N)=O)NC(=O)[C@H](CC(=O)O)NC(=O)[C@@H]2CCCN2C1=O` [SEQ ID NO: 284] (H-DCLGFSRKCIPDNDKCCRPNLVCSRTHKWCKYVF-NH2; disulfide 2-17, 9-23, 16-30), the IC50 on hNav1.5 (setting [3]) came out at 16900 nM; on hNav1.7 [2] (setting [3]), 1020 nM; at hNav1.3 (setting [3]), 710 nM.
Consider `CC[C@H](C)[C@@H]1NC(=O)[C@H](CC(C)C)NC(=O)[C@H](CC(N)=O)NC(=O)[C@@H]2CCCN2C(=O)[C@H](CCCNC(=N)N)NC(=O)[C@@H]2CSSC[C@H](NC(=O)[C@@H](N)CC(=O)O)C(=O)N[C@@H](CC(C)C)C(=O)NCC(=O)N[C@@H](Cc3ccccc3)C(=O)N[C@@H](CCSC)C(=O)N[C@@H](CCCNC(=N)N)C(=O)N[C@@H](CCCCN)C(=O)N[C@H]3CSSC[C@H](NC1=O)C(=O)N[C@@H](CO)C(=O)N[C@@H](CCCNC(=N)N)C(=O)N[C@@H]([C@@H](C)O)C(=O)N[C@@H](Cc1c[nH]cn1)C(=O)N[C@@H](CCCCN)C(=O)N[C@@H](Cc1c[nH]c4ccccc14)C(=O)N[C@H](C(=O)N[C@@H](CCCCN)C(=O)N[C@@H](Cc1ccc(O)cc1)C(=O)N[C@H](C(=O)N[C@@H](Cc1ccccc1)C(N)=O)C(C)C)CSSC[C@H](NC(=O)[C@H](CCCCN)NC(=O)[C@H](CC(=O)O)NC(=O)[C@H](CC(N)=O)NC(=O)[C@H](CC(=O)O)NC(=O)[C@@H]1CCCN1C(=O)[C@H]([C@@H](C)CC)NC3=O)C(=O)N2` [compound 321] (H-DCLGFMRKCIPDNDKCCRPNLICSRTHKWCKYVF-NH2; disulfide 2-17, 9-23, 16-30), for which the IC50 was determined as 11500 nM on hNav1.5 (Use), 80 nM on hNav1.7 [2] (Use) and 70 nM on hNav1.3 (Use).
Consider `CC[C@H](C)[C@@H]1NC(=O)[C@@H]2CSSC[C@@H]3NC(=O)[C@H](C(C)C)NC(=O)[C@H](CC(C)C)NC(=O)[C@H](CC(N)=O)NC(=O)[C@@H]4CCCN4C(=O)[C@H](CCCNC(=N)N)NC(=O)[C@H](CSSC[C@H](NC(=O)[C@@H](N)CC(=O)O)C(=O)N[C@@H](CC(C)C)C(=O)N[C@@H](CCCNC(=N)N)C(=O)N[C@@H](CCSC)C(=O)N[C@@H](CCSC)C(=O)N[C@@H](CCCNC(=N)N)C(=O)N[C@@H](CCCCN)C(=O)N2)NC(=O)[C@H](CSSC[C@@H](C(=O)N[C@@H](CCCCN)C(=O)N[C@@H](Cc2ccc(O)cc2)C(=O)N[C@H](C(=O)N[C@@H](Cc2ccccc2)C(N)=O)C(C)C)NC(=O)[C@H](Cc2c[nH]c4ccccc24)NC(=O)[C@H](CCCCN)NC(=O)[C@H](Cc2c[nH]cn2)NC(=O)[C@H]([C@@H](C)O)NC(=O)[C@H](CCCNC(=N)N)NC(=O)[C@H](CO)NC3=O)NC(=O)[C@H](CCCCN)NC(=O)[C@H](CC(=O)O)NC(=O)[C@H](CC(N)=O)NC(=O)[C@H](CC(=O)O)NC(=O)[C@@H]2CCCN2C1=O` [compound 694] (H-DCLRMMRKCIPDNDKCCRPNLVCSRTHKWCKYVF-NH2; disulfide 2-17, 9-23, 16-30), for which the IC50 was above 5000 nM at hNav1.5 (use-dependent protocol, hNav1.5); 80 nM on hNav1.7 [2] (use-dependent protocol, hNav1.7); 290 nM at hNav1.3 (use-dependent protocol, hNav1.3).
For `CC[C@H](C)[C@@H]1NC(=O)[C@@H]2CSSC[C@@H]3NC(=O)[C@H](C(C)C)NC(=O)[C@H](CC(C)C)NC(=O)[C@H](CC(N)=O)NC(=O)[C@@H]4CCCN4C(=O)[C@H](CCCNC(=N)N)NC(=O)[C@H](CSSC[C@H](NC(=O)[C@@H](N)CC(=O)O)C(=O)N[C@@H](CC(C)C)C(=O)NCC(=O)N[C@@H](C)C(=O)N[C@@H](CCSC)C(=O)N[C@@H](CCCNC(=N)N)C(=O)N[C@@H](CCCCN)C(=O)N2)NC(=O)[C@H](CSSC[C@@H](C(=O)N[C@@H](CCCCN)C(=O)N[C@@H](Cc2ccc(O)cc2)C(=O)N[C@H](C(=O)N[C@@H](Cc2ccccc2)C(N)=O)C(C)C)NC(=O)[C@H](Cc2c[nH]c4ccccc24)NC(=O)[C@H](CCCCNC(C)=O)NC(=O)[C@H](Cc2c[nH]cn2)NC(=O)[C@H]([C@@H](C)O)NC(=O)[C@H](CCCNC(=N)N)NC(=O)[C@H](CO)NC3=O)NC(=O)[C@H](CCCCN)NC(=O)[C@H](CC(=O)O)NC(=O)[C@H](CC(N)=O)NC(=O)[C@H](CC(=O)O)NC(=O)[C@@H]2CCCN2C1=O` [compound 742] (H-DCLGAMRKCIPDNDKCCRPNLVCSRTHK(Ac)WCKYVF-NH2; disulfide 2-17, 9-23, 16-30), the IC50 was determined as 22700 nM on hNav1.5 (use-dependent block, hNav1.5); 1100 nM at hNav1.7 [2] (use-dependent block, hNav1.7); 2500 nM on hNav1.3 (use-dependent block, hNav1.3).
